Five compounds from article PMC11879040, “Advancing systemic toxicity risk assessment: Evaluation of a NAM-based toolbox approach” (Toxicological Sciences, 2024) can be followed below.

Where two headings read alike, the source gives them in different places.

Experiment [1] addresses T1, Estrogen receptor, ER1 (h) (Homo sapiens, UniProt P03372).
T1 construct: purchased Eurofins Cerep (SafetyScreen44-based IPP panel)
T1 sequence (P03372 1-595): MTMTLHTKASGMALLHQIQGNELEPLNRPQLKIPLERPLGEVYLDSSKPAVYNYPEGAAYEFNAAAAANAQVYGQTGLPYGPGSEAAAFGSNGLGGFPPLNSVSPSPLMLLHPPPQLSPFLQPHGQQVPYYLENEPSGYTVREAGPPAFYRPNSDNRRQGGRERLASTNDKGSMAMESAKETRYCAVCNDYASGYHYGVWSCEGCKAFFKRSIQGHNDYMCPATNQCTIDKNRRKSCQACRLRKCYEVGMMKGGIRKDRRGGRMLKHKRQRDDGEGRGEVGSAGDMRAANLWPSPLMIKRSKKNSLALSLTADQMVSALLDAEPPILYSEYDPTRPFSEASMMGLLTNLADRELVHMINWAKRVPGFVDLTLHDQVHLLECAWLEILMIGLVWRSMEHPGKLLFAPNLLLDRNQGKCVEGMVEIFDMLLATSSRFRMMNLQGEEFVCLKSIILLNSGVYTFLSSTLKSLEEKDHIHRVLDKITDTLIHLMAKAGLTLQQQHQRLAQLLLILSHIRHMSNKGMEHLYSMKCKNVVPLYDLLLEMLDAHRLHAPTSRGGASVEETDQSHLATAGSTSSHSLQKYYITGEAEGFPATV
The experiment can be described thus: IPP ER1 coactivator recruitment (agonist). Type of experiment: biochemical. The settings on record: estriol.

Experiment [2] has as its target T2, Muscarinic acetylcholine receptor M2, CHRM2 (h) (Homo sapiens, UniProt P08172).
T2 sequence (P08172 1-466): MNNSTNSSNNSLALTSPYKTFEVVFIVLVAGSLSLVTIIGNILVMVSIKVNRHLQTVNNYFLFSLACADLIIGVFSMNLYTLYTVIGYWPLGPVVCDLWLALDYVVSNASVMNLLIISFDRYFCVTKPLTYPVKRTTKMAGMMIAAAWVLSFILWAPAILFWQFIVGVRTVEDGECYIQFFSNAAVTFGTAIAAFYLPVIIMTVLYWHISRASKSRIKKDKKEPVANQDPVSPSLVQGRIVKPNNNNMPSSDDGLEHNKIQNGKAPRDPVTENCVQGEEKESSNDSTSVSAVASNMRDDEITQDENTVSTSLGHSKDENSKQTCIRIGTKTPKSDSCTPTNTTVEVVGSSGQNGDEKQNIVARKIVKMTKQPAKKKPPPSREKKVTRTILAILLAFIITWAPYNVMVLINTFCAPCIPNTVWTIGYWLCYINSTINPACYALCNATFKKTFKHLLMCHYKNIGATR
The settings on record: control methoctramine.

Experiment [3] deals with Voltage-dependent L-type Ca2+ channel (dihydropyridine site), CACNA1C (r) (Rattus norvegicus, UniProt P22002). Type of experiment: binding.
Voltage-dependent L-type Ca2+ channel (dihydropyridine site), CACNA1C (r), sequence (P22002 whole entry): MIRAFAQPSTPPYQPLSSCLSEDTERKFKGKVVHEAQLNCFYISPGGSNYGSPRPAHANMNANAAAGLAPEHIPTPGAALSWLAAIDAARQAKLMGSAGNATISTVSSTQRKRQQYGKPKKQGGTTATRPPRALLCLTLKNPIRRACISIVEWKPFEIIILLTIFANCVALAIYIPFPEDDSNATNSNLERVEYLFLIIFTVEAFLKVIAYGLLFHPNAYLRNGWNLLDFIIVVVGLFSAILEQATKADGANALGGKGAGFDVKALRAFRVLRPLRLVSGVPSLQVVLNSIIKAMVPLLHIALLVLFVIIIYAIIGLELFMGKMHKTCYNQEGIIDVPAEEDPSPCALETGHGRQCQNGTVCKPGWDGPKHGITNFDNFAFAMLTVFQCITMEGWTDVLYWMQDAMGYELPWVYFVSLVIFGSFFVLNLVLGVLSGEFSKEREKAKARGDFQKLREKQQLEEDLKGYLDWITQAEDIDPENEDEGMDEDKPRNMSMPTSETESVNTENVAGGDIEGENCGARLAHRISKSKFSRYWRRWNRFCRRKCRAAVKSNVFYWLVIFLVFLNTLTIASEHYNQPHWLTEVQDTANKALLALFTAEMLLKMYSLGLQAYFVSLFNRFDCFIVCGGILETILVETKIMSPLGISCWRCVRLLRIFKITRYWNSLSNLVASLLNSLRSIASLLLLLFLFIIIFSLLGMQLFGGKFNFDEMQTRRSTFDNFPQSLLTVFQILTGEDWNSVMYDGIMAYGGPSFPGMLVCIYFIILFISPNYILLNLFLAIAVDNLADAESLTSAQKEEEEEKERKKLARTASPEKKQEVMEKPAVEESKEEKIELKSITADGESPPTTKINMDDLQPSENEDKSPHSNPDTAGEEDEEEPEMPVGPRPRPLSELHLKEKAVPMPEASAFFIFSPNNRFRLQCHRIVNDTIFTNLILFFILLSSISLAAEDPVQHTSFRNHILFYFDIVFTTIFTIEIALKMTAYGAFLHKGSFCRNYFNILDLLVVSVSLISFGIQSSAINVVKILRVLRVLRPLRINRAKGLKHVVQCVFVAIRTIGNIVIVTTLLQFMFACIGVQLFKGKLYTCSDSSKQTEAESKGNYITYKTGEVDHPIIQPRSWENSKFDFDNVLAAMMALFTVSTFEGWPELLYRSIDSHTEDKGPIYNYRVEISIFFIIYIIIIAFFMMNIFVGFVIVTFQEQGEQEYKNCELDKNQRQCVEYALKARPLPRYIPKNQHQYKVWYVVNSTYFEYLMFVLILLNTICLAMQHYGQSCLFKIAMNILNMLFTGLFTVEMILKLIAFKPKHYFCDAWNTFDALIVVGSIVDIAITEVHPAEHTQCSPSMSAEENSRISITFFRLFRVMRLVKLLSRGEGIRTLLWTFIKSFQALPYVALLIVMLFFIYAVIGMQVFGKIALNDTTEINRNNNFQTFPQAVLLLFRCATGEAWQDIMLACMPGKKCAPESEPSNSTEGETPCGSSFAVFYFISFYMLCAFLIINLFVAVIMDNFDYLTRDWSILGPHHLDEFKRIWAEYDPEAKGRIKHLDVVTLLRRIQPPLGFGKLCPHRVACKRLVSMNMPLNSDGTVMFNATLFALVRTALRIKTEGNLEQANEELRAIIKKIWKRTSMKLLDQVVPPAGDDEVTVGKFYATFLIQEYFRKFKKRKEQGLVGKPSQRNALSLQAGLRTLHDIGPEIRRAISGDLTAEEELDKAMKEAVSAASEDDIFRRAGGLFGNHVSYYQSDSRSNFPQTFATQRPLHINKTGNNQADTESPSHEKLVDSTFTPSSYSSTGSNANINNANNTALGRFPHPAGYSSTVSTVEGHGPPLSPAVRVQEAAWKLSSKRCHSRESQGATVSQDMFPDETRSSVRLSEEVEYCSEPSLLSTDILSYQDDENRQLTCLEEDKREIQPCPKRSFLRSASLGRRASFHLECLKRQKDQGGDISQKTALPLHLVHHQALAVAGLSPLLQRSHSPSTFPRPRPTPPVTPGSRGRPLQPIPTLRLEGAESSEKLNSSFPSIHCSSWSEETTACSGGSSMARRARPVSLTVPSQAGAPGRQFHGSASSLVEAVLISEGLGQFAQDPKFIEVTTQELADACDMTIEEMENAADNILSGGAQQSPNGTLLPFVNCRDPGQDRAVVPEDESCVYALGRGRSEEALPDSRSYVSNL
The target of experiment [4] is cGMP-inhibited 3',5'-cyclic phosphodiesterase A, PDE3A (h) (Homo sapiens, UniProt Q14432). In words: IPP PDE3A enzymatic activity. Type of experiment: biochemical. The settings on record: control milrinone.
Experiment [5] concerns the target T3, Muscarinic acetylcholine receptor M3, CHRM3 (h) (Homo sapiens, UniProt P20309).
T3 construct: purchased Eurofins Cerep (SafetyScreen44-based IPP panel)
Type of experiment: binding. The settings on record: 10 uM; ligand/control 4-DAMP.

For experiment [6], the system named is 63 targets with known safety liabilities. The experiment can be described thus: In vitro pharmacological profiling (IPP) panel, screening at 10 or 100 µM and dose response, minimum IC50/AC50. Type of experiment: biochemical. The settings on record: lowest AC50 across IPP panel (systemic targets); cell_type -; read-out: ipp_lowest_ac50_systemic PoD.
Experiment [7] concerns the target T4, Muscarinic acetylcholine receptor M1, CHRM1 (h) (Homo sapiens, UniProt P11229).
T4 construct: purchased Eurofins Cerep (SafetyScreen44-based IPP panel)
T4 sequence (P11229 1-460): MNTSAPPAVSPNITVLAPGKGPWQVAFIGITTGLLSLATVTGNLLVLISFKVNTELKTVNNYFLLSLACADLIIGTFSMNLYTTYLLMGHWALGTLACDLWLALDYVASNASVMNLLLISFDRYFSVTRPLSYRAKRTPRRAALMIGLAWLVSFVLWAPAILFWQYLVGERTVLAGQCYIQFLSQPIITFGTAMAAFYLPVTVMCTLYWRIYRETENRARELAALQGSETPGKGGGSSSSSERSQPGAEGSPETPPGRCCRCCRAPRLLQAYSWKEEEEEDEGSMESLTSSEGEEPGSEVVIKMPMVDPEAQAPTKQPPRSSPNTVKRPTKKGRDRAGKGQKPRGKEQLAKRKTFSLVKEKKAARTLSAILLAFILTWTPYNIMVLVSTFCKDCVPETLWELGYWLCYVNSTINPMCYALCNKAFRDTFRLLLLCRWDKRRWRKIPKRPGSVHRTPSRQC
Type of experiment: binding. To be noted: control pirenzepine.

Experiment [8] deals with Prostaglandin G/H synthase 1, PTGS1(h) (Homo sapiens, UniProt P23219). The experiment can be described thus: IPP PTGS1 enzymatic activity. Type of experiment: biochemical. The settings on record: control Diclofenac.
Prostaglandin G/H synthase 1, PTGS1(h), sequence (P23219 24-599): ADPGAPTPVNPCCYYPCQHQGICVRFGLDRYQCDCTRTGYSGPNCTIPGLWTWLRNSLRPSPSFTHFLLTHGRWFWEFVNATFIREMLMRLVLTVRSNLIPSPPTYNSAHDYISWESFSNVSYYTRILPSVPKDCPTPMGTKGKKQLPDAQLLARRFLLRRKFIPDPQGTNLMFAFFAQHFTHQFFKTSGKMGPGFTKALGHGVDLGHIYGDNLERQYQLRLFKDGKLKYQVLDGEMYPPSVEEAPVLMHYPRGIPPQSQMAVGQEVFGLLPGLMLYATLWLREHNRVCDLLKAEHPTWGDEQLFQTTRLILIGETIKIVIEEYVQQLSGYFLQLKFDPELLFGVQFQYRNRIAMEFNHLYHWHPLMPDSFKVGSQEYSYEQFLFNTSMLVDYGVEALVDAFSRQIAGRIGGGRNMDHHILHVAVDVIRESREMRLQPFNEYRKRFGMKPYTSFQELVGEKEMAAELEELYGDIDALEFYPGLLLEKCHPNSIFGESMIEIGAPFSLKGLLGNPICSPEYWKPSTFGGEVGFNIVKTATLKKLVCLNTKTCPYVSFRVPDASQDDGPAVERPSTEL
Experiment [9] concerns the target Neuronal acetylcholine receptor subunit alpha-4, CHRNA4 (h) (Homo sapiens, UniProt P17787+P43681). The settings on record: control nicotine.
For experiment [10], the target named is Vasopressin V1a receptor, AVPR1A (h) (Homo sapiens, UniProt P37288). The experiment can be described thus: IPP AVPR1A binding (agonist radioligand). To be noted: ligand/control [d(CH2)5 1,Tyr(Me)2]-AVP.
Vasopressin V1a receptor, AVPR1A (h), sequence (P37288 whole entry): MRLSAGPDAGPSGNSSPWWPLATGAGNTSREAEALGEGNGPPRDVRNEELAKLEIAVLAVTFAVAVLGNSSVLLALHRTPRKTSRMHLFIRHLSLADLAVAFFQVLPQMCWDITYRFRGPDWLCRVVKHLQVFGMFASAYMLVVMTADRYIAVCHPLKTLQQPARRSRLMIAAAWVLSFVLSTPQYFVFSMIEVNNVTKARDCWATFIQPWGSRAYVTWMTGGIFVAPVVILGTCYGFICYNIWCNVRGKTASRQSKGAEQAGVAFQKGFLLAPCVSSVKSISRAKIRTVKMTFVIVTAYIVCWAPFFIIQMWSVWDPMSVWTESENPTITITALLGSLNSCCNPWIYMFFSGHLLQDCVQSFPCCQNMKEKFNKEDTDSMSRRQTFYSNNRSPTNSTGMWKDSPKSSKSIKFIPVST
For experiment [11], the target named is 5-hydroxytryptamine receptor 1B, HTR1B (h) (Homo sapiens, UniProt P28222). Type of experiment: binding. The settings on record: IPP screening at 10 uM; control serotonin.
5-hydroxytryptamine receptor 1B, HTR1B (h), sequence (P28222 whole entry): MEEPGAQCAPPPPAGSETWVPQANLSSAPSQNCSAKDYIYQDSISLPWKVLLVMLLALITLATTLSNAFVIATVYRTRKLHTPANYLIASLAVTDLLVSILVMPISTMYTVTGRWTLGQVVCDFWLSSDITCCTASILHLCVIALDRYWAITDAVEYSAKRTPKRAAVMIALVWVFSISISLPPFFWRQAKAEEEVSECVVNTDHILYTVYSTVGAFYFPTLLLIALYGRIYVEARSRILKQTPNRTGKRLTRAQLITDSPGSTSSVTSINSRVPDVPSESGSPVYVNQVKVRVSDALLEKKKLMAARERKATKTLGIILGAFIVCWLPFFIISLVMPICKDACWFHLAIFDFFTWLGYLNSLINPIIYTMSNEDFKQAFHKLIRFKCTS
Experiment [12] addresses Cannabinoid receptor 2, CNR2 (h) (Homo sapiens, UniProt P34972). Type of experiment: binding. The settings on record: IPP screening at 10 uM; control WIN 55212-2.

Neuronal acetylcholine receptor subunit alpha-4, CHRNA4 (h), sequence (P43681 29-627 limits assumed): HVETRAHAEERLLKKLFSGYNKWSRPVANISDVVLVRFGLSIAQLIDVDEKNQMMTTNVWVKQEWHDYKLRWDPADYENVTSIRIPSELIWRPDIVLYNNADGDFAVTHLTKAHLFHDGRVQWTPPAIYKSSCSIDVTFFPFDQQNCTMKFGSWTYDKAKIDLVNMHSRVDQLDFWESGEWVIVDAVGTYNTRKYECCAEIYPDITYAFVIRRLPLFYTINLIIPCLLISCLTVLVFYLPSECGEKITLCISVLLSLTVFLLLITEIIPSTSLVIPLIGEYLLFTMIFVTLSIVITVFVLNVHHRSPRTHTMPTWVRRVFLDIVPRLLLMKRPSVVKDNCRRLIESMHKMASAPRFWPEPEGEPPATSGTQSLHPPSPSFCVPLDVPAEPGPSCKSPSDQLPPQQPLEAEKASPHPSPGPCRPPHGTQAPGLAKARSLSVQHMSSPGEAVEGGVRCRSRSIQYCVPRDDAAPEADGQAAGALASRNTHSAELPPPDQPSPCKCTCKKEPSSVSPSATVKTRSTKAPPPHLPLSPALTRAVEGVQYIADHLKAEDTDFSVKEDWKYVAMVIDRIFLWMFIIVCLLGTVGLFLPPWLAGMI
Neuronal acetylcholine receptor subunit alpha-4, CHRNA4 (h), sequence (P17787 26-502): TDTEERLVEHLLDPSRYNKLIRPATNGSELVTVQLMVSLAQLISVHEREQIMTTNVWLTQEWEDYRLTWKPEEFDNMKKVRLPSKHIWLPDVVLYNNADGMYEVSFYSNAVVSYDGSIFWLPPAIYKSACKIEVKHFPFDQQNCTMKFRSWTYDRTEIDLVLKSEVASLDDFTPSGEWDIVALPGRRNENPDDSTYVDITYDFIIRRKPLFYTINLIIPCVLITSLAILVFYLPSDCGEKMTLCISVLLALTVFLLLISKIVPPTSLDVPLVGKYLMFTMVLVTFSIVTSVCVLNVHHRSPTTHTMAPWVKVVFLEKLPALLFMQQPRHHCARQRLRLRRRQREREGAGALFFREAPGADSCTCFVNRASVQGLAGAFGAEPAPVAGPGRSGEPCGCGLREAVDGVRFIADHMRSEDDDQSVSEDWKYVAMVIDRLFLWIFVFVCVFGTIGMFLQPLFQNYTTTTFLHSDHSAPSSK
Cannabinoid receptor 2, CNR2 (h), sequence (P34972 whole entry): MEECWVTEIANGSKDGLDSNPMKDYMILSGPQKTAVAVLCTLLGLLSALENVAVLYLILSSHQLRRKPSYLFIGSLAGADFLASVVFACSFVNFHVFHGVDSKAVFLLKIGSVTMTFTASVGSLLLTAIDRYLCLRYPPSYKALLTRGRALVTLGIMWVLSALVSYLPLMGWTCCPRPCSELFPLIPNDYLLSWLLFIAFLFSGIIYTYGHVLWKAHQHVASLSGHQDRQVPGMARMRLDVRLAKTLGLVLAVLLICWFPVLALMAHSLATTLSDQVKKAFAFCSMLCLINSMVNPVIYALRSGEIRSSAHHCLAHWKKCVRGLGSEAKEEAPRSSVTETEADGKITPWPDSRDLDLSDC

Regarding `CCOP(=S)(OCC)Oc1nc(Cl)c(Cl)cc1Cl` [Chlorpyrifos, O,O-Diethyl O-(3,5,6-trichloropyridin-2-yl) phosphorothioate], the “IPP screening %, Coactivator recruitment” value in experiment [1] (10 uM) was -1.0%. In addition, the Specific binding in experiment [2] (IPP screening at 10 uM) is recorded as -21.3%; in [3] it was 47.7%; in experiment [7] (IPP screening at 10 uM), -5.6%; in experiment [9] (IPP screening at 10 uM) it was -6.9%; in [11], -20.1%; in experiment [12], 16.0%. For the same compound, the values for the Enzymatic activity in experiment [4] (IPP screening at 10 uM) and in experiment [8] (IPP screening at 10 uM) were 36.9% and 2.7%, respectively. Besides, the “IPP screening %, Specific binding” value in experiment [5] is recorded as 5.8%; in experiment [10] (10 uM) it was -6.8%. The AC50 in [6] came out at 1850 nM.

`CC(C)(C)c1ccc(CCOc2ncnc3ccccc23)cc1` [Fenazaquin, 4-[2-(4-tert-Butylphenyl)ethoxy]quinazoline]: the “IPP screening %, Coactivator recruitment” value in [1] (10 uM) is -2.0%. For the same compound, the Specific binding in [2] (IPP screening at 10 uM) is reported as 14.3%; in experiment [3] (IPP screening at 10 uM, control nitrendipine), 19.8%; in [7] (IPP screening at 10 uM), 12.0%; in experiment [9] (IPP screening at 10 uM), -6.4%; in experiment [11] it was -2.2%; in experiment [12] it was 26.8%. For the same compound, the Enzymatic activity is 32.4% in [4] (IPP screening at 10 uM) and -4.7% in experiment [8] (IPP screening at 10 uM). Further, the entries for the “IPP screening %, Specific binding” value in [5] and in [10] (10 uM) were 11.5% and -5.5%, respectively. For the same compound, the AC50 in experiment [6] was 2860 nM.

Turning to `CC1(C)O[C@@H]2[C@@H](CO[C@@]3(COS(N)(=O)=O)OC(C)(C)O[C@@H]23)O1` [Topiramate, [(3aS,5aR,8aR,8bS)-2,2,7,7-Tetramethyltetrahydro-2H,3aH,7H-bis[1,3]dioxolo[4,5-b:4',5'-d]pyran-3a-yl]methyl sulfamate (non-preferred name)], the “IPP screening %, Coactivator recruitment” value in [1] (100 uM, * denotes assay interference (2-Amino-6-chloro-4-nitrophenol, HC Red 3)) is given as -1.0%. The Specific binding was 0.7% in [2] (IPP screening at 100 uM), -33.5% in [3], 12.2% in [7] (IPP screening at 100 uM) and 3.3% in experiment [9] (IPP screening at 100 uM). In addition, the Enzymatic activity is reported as 12% in experiment [4] (IPP screening at 100 uM) and -1.5% in [8] (IPP screening at 100 uM). The AC50 in experiment [6] was found to be 160 nM. For the same compound, in experiment [10] (100 uM), the “IPP screening %, Specific binding” value is 7.2%.

For “(4S,4aR,5S,5aR,6S,12aS)-4-(Dimethylamino)-3,5,6,10,12,12a-hexahydroxy-6-methyl-1,11-dioxo-1,4,4a,5,5a,6,11,12a-octahydrotetracene-2-carboxamide--hydrogen chloride (1/1) [Oxytetracycline hydrochloride]”, the Specific binding in [3] is reported as -32.1%; in experiment [9] (IPP screening at 10 uM), -2.5%; in experiment [11], -8.9%; in experiment [12] it was 4.9%. Besides, the Enzymatic activity in experiment [4] (IPP screening at 10 uM) was 30.0%; in experiment [8] (IPP screening at 10 uM), -5.1%. Further, the “IPP screening %, Specific binding” value in experiment [10] (10 uM) was 1.6%.

In the case of “mixture of 2- and 3-tert-butyl-4-methoxyphenol [Butylated Hydroxyanisole]”, the Specific binding is on record as 8.9% in experiment [2] (IPP screening at 10 uM); -14.2% in [3]; 8.4% in experiment [7] (IPP screening at 10 uM); -5.0% in [9] (IPP screening at 10 uM); 0.6% in [11]; -1.2% in [12]. Also, the results for the Enzymatic activity in experiment [4] (IPP screening at 10 uM) and in experiment [8] (IPP screening at 10 uM) were 22.6% and 46.1%, respectively. In addition, the “IPP screening %, Specific binding” value is reported as -7.7% in experiment [5] and 15.2% in experiment [10] (10 uM).
